Our source for the IC50 and EC50 values is US8546608B2, “Proteasome inhibitors and methods of using the same” (Cephalon, Inc., priority 2003, dated 2013).

Usually IC50 stands for the concentration at which inhibition is half-maximal. Low readings indicate greater potency in that assay, high ones weaker potency in that assay. A word on the EC50: it is the concentration giving half of the maximal effect.

SMILES strings stand for the structures. A value given as a limit tells only on which side of the number the result lay.

In experiment [1] the target is T1, 20S Human Erythrocyte Proteasome (HEP) (Homo sapiens, UniProt P20618+P28074).
T1 construct: 20S Human Erythrocyte Proteasome (HEP), purchased from Immatics Biotechnologies Inc; purchased Immatics Biotechnologies Inc., Tübingen, Germany; host or cells: human erythrocytes (natural source)
The experiment is described as follows: Chymotrypsin-like activity of 20S Human Erythrocyte Proteasome (HEP), IC50 determination. The class given is biochemical. Particulars: assay of Example C, inhibition of HEP. In short, it runs like this: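 20S proteasome at 0.2 μg/mL (about 0.6 nM catalytic sites) in 20 mM Tris with 0.04% SDS, preincubated 15 min at 37° C with inhibitor before Suc-LLVY-AMC (100 μM final). AMC fluorescence read in the linear range; triplicates, IC50 from concentration series.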

Experiment [2] addresses T2, proteasome in Molt-4 cells (human leukemia) (Homo sapiens, UniProt P20618+P28074).
T2 sequence (P28074 60-263): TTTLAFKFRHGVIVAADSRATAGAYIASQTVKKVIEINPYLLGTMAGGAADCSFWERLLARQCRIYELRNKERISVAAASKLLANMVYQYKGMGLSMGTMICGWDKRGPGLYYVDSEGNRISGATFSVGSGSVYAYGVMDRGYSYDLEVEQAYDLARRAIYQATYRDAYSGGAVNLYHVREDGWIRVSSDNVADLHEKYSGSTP
T2 sequence (P20618 29-241): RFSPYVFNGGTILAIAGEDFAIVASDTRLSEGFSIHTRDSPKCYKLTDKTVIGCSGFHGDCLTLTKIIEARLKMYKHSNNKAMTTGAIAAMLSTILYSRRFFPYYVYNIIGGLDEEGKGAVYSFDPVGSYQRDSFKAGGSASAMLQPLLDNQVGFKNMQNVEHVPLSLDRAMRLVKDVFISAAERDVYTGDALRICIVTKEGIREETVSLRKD
The format is cell-based. Conditions: assay of Example E, inhibition of MOLT4; read-out: MOLT4 (EC50). Put shortly:
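Intact Molt-4 cells (6×10^6 cells/mL) in HEPES-buffered saline were preincubated with inhibitor 15 min at 37 °C, then given cell-permeable MeOSuc-FLF-AFC at 25 μM final.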

`CC(C)C[C@H](NC(=O)[C@H](CCCNC(=N)N[N+](=O)[O-])NC(=O)CCCCCCCCC#N)B(O)O` [D.7.61, Boronic acid, [(1R)-1-[[(2S)-5-[[imino(nitroamino)methyl]amino]-2-[(9-cyanononanoyl)amino]-1-oxopentyl]amino]-3-methylbutyl]] returned an IC50 in experiment [1] of less than 10 nM. Further, in experiment [2], the EC50 is greater than 10000 nM.
In experiment [1], `CCCCCCCCCC(=O)N[C@H](C(=O)N[C@@H](CC(C)C)B1O[C@@H]2C[C@@H]3C[C@@H](C3(C)C)[C@]2(C)O1)[C@@H](C)O` [D.8, Decanamide, N-[(1S,2R)-1-[[[(1R)-1-[(3aS,4S,6S,7aR)-hexahydro-3a,5,5-trimethyl-4,6-methano-1,3,2-benzodioxaborol-2-yl]-3-methylbutyl]amino]carbonyl]-2-hydroxypropyl]-] gave an IC50 of less than 10 nM. In addition, in experiment [2], the EC50 is less than 200 nM.
Consider `CC(C)C[C@H](NC(=O)[C@@H](NC(=O)c1cnccn1)[C@@H](C)O)B1O[C@@H]2C[C@@H]3C[C@@H](C3(C)C)[C@]2(C)O1` [D.8.4, 2-Pyrazinecarbossamide, N-[(1S,2R)-1-[[[(1R)-1-[(3aS,4S, 6S,7aR)-hexahydro-3a,5,5-trimethyl-4,6-methano-1,3,2-benzodioxaborol-2-yl]-3-melthylbutyl]amino]carbonyl]-2-hydroxypropyl]], for which the IC50 in experiment [1] is less than 100 nM. Besides, the EC50 in experiment [2] is less than 200 nM.
On the same counts, the results for `CCCCCCCCCCCCC(=O)N[C@H](C(=O)N[C@@H](CC(C)C)B1O[C@@H]2C[C@@H]3C[C@@H](C3(C)C)[C@]2(C)O1)[C@@H](C)O` [D.8.5, Tridecanamide, N-[(1S,2R)-1-[[[(1R)-1-[(3aS,4S,6S,7aR)-hexahydro-3a,5,5-trimethyl-4,6-methano-1,3,2-benzodioxaborol-2-yl]-3-methylbutyl]amino]carbonyl]-2-hydroxypropyl]] are less than 10 nM and less than 200 nM.
In experiment [1], `CC(C)C[C@H](NC(=O)[C@@H](NC(=O)c1ccc(-c2ccccc2)cc1)[C@@H](C)O)B1O[C@@H]2C[C@@H]3C[C@@H](C3(C)C)[C@]2(C)O1` [D.8.6, 4-Phenylbenzamide, N-[(1S,2R)-1-[[[(1R)-1-[(3aS,4S,6S,7aR)-hexahydro-3a,5,5-trimethyl-4,6-methano-1,3,2-benzodioxaborol-2-yl]-3-methylbutyl]amino]carbonyl]-2-hydroxypropyl]] had an IC50 of less than 10 nM. Besides, the EC50 in experiment [2] was less than 200 nM.
Taken in the same sequence, the figures for `CC(C)C[C@H](NC(=O)[C@H](CC(N)=O)NC(=O)c1cnccn1)B1O[C@@H]2C[C@@H]3C[C@@H](C3(C)C)[C@]2(C)O1` [D.8.18, 2-Pyrazinecarboxamide, N-[(1S)-1-[[[(1R)-1-[(3aS,4S,6S,7aR)-hexahydro-3a,5,5-trimethyl-4,6-methano-1,3,2-benzodioxaborol-2-yl]-3-methylbutyl]amino]carbonyl]-2-carbamoylethyl]] were less than 100 nM and 200 to 2000 nM.
On the same counts, the results for `CCCCCCCCCC(=O)N[C@@H](CC(N)=O)C(=O)N[C@@H](CC(C)C)B1O[C@@H]2C[C@@H]3C[C@@H](C3(C)C)[C@]2(C)O1` [D.8.19, Decanamide, N-[(1S)-1-[[[(1R)-1-[(3aS,4S,6S,7aR)-hexahydro-3a,5,5-trimethyl-4,6-methano-1,3,2-benzodioxaborol-2-yl]-3-methylbutyl]amino]carbonyl]-2-carbamoylethyl]] are less than 10 nM and less than 200 nM.
On the same counts, the results for `CCCCc1ccc(C(=O)N[C@@H](CC(N)=O)C(=O)N[C@@H](CC(C)C)B2O[C@@H]3C[C@@H]4C[C@@H](C4(C)C)[C@]3(C)O2)cc1` [D.8.20, 4-Butylbenzamide, N-[(1S)-1-[[[(1R)-1-[(3aS,4S,6S,7aR)-hexahydro-3a,5,5-trimethyl-4,6-methano-1,3,2-benzodioxaborol-2-yl]-3-methylbutyl]amino]carbonyl]-2-carbamoylethyl]] are less than 10 nM and less than 200 nM.
In turn, `CCCCCCCCCC(=O)N[C@@H](CNC(=O)c1ccc(C)cc1)C(=O)N[C@@H](CC(C)C)B1O[C@@H]2C[C@@H]3C[C@@H](C3(C)C)[C@]2(C)O1` [D.9, Decanamide, N-[(1S)-1-[[[(1R)-1-[(3aS,4S,6S,7aR)-hexahydro-3a,5,5-trimethyl-4,6-methano-1,3,2-benzodioxaborol-2-yl]-3-methylbutyl]amino]carbonyl]-2-[(4-methylbenzoyl)amino]ethyl]-] showed an IC50 in experiment [1] of less than 10 nM. Besides, the EC50 in experiment [2] is less than 200 nM.
As to `CCCCCCCCCC(=O)N[C@@H](CNC(=O)Cc1ccc(OC)c(OC)c1)C(=O)N[C@@H](CC(C)C)B1O[C@@H]2C[C@@H]3C[C@@H](C3(C)C)[C@]2(C)O1` [D.12, 2-S-Decanoylamino-3-(3,4-dimethoxyphenylacetamido)propionamide, N-[(1S)-1-[[(1R)-1-[(3aS,4S,6S,7aR)-hexahydro-3a,5,5-trimethyl-4,6-methano-1,3,2-benzodioxaborol-2-yl]-3-methylbutyl]amino]carbonyl]], the IC50 in experiment [1] is less than 10 nM. Moreover, the EC50 in experiment [2] is less than 200 nM.
Taken in the same sequence, the figures for `CCCCc1ccc(C(=O)N[C@@H](CNC(=O)c2cnccn2)C(=O)N[C@@H](CC(C)C)B2O[C@@H]3C[C@@H]4C[C@@H](C4(C)C)[C@]3(C)O2)cc1` [D.18, 2-S-(4-Butylbenzoylamino)-3-(2-pyrazinocarbonylamino)-N-[(1S)-1-[[(1R)-1-[(3aS,4S,6S,7aR)-hexahydro-3a,5,5-trimethyl-4,6-methano-1,3,2-benzodioxaborol-2-yl]-3-methylbutyl]amino]carbonyl]] were less than 10 nM and less than 200 nM.
On the same counts, the results for `CCCCc1ccc(C(=O)N[C@@H](CNS(=O)(=O)c2ccc(F)cc2)C(=O)N[C@@H](CC(C)C)B2O[C@@H]3C[C@@H]4C[C@@H](C4(C)C)[C@]3(C)O2)cc1` [D.19, 4-Butylbenzamide, N-[(1S)-1-[[[(1R)-1-[(3aS,4S,6S,7aR)-hexahydro-3a,5,5-trimethyl-4,6-methano-1,3,2-benzodioxaborol-2-yl]-3-methylbutyl]amino]carbonyl]-2-[4-fluoro-benzenesulfonammide]ethyl]-] are less than 10 nM and less than 200 nM.
In experiment [1], `CCCCc1ccc(C(=O)N[C@@H](CNC(=O)c2cccs2)C(=O)N[C@@H](CC(C)C)B2O[C@@H]3C[C@@H]4C[C@@H](C4(C)C)[C@]3(C)O2)cc1` [D.24.8, 4-butylbenzamide, N-[(1S)-1-[[[(1R)-1-[(3aS,4S,6S,7aR)-hexahydro-3a,5,5-trimethyl-4,6-methano-1,3,2-benzodioxaborol-2-yl]-3-methylbulyl]amino]carbonyl]-2-[(thien-2-ylcarbonyl)amino]ethyl]-] displayed an IC50 of less than 10 nM. Further, in experiment [2], the EC50 is less than 200 nM.
Taken in the same sequence, the figures for `CCCCCC(=O)NC[C@H](NC(=O)c1ccc(CCCC)cc1)C(=O)N[C@@H](CC(C)C)B1O[C@@H]2C[C@@H]3C[C@@H](C3(C)C)[C@]2(C)O1` [D.24.10, 4-butylbenzamide, N-[(1S)-1-[[[(1R)-1-[(3aS,4S,6S,7aR)-hexahydro-3a,5,5-trimethyl-4,6-methano-1,3,2-benzodioxaborol-2-yl]-3-methylbutyl]amino]carbonyl]-2-(hexanonylamino)ethyl]-] were less than 10 nM and less than 200 nM.
In experiment [1], `CCCCc1ccc(C(=O)N[C@@H](CNC(=O)C2CC2)C(=O)N[C@@H](CC(C)C)B2O[C@@H]3C[C@@H]4C[C@@H](C4(C)C)[C@]3(C)O2)cc1` [D.24.11] registered an IC50 of less than 10 nM. In addition, in experiment [2], the EC50 was less than 200 nM.
Taken in the same sequence, the figures for `CCCCc1ccc(C(=O)N[C@@H](CNC(=O)Nc2ccccc2)C(=O)N[C@@H](CC(C)C)B2O[C@@H]3C[C@@H]4C[C@@H](C4(C)C)[C@]3(C)O2)cc1` [D.24.12, 4-Butylbenzamide, N-[(1S)-1-[[[(1R)-1-[(3aS,4S,6S,7aR)-hexahydro-3a,5,5-trimethyl-4,6-methano-1,3,2-benzodioxaborol-2-yl]-3-methylbutyl]amino]carbonyl]-2-(3-phenyl-ureido)ethyl]-] were less than 10 nM and less than 200 nM.
Taken in the same sequence, the figures for `CCCCc1ccc(C(=O)N[C@@H](CNC(=O)Cc2ccc(OC)c(OC)c2)C(=O)N[C@@H](CC(C)C)B2O[C@@H]3C[C@@H]4C[C@@H](C4(C)C)[C@]3(C)O2)cc1` [D.24.14] were less than 10 nM and less than 200 nM.
On the same counts, the results for `CCCCc1ccc(C(=O)N[C@@H](CNC(=O)c2cccnc2)C(=O)N[C@@H](CC(C)C)B2O[C@@H]3C[C@@H]4C[C@@H](C4(C)C)[C@]3(C)O2)cc1` [D.24.15, 4-butylbenzamide, N-[(1S)-1-[[[(1R)-1-[(3aS,4S,6S,7aR)-hexahydro-3a,5,5-trimethyl-4,6-methano-1,3,2-benzodioxaborol-2-yl]-3-methylbutyl]amino]carbonyl]-2-(nicotinonylamino)ethyl]-] are less than 10 nM and less than 200 nM.
In the case of `CCOC(=O)/C=C/C(=O)N[C@@H](CCCNC(=N)N[N+](=O)[O-])C(=O)N[C@@H](CC(C)C)B(O)O` [E.1.1, Boronic acid, [(1R)-1-[[(2S)-5-[[imino(nitroamino)methyl]amino]-2-[((2E)-3-ethoxycarbonyl-1-oxoprop-2-enyl)amino]-1-oxopentyl]amino]-3-methylbutyl]], the IC50 in experiment [1] was less than 10 nM. In addition, the EC50 in experiment [2] was greater than 10000 nM.
